According to the supplement of paper PMC10307832:

Columns and labels:
Experiment in all cases: relative viability (nuclei count vs DMSO), 5 days (fraction); higher = more cells survive
[1] = system: NCI-H647
Method in brief: (§1)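 Dosing by pin tool came one day after lung cancer cell lines were seeded in 1536-well plates, using either one drug or a fixed anchor-drug dose plus five library-drug doses (not always all listed) in √10 steps. After 5 days, nuclei were counted on 4× images. Relative viability is treated-well nuclei count divided by vehicle-well nuclei count, and values are medians of duplicate plates.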

[2] = system: NCI-H2347
Method in brief: as §1

[3] = system: HARA
Method in brief: as §1

[4] = system: NCI-H2228
Method in brief: as §1

[5] = system: NCI-H322M
Method in brief: as §1

[6] = system: NCI-H358
Method in brief: as §1

[7] = system: UMC-11
Method in brief: as §1

[8] = system: NCI-H838
Method in brief: as §1

[9] = system: NCI-H1355
Method in brief: as §1

[10] = system: SK-MES-1
Method in brief: as §1

[11] = system: HOP-62
Method in brief: as §1

[12] = system: NCI-H2170
Method in brief: as §1

[13] = system: NCI-H1993
Method in brief: as §1

[14] = system: EKVX
Method in brief: as §1

[15] = system: NCI-H1755
Method in brief: as §1

[16] = system: NCI-H1395
Method in brief: as §1

[17] = system: NCI-H2342
Method in brief: as §1

[18] = system: NCI-H1793
Method in brief: as §1

[19] = system: PC-14
Method in brief: as §1

[20] = system: COR-L23
Method in brief: as §1

[21] = system: NCI-H1734
Method in brief: as §1

[22] = system: NCI-H522
Method in brief: as §1

[23] = system: NCI-H2009
Method in brief: as §1

[24] = system: COR-L 105
Method in brief: as §1

C[C@@H]1CN(CC(=O)Nc2ccc3c(c2)Cc2cccc(-c4cc(=O)cc(N5CCOCC5)o4)c2S3)C[C@H](C)O1 + Cc1cc(Nc2cc(N3CCN(C)CC3)nc(Sc3ccc(NC(=O)C4CC4)cc3)n2)n[nH]1 [Tozasertib] (partner 0.1 µM)
relative viability ([1]; first compound 0.04 µM): 0.461 | relative viability ([1]; first compound 0.1265 µM): 0.278 | relative viability ([1]; first compound 0.4 µM): 0.344 | relative viability ([1]; first compound 4 µM): 0.192 | relative viability ([2]; first compound 0.04 µM): 0.598 | relative viability ([2]; first compound 0.1265 µM): 0.646 | relative viability ([2]; first compound 0.4 µM): 0.535 | relative viability ([2]; first compound 4 µM): 0.448 | relative viability ([3]; first compound 0.1265 µM): 0.105 | relative viability ([3]; first compound 0.4 µM): 0.0954 | relative viability ([3]; first compound 4 µM): 0.104 | relative viability ([4]; first compound 0.04 µM): 0.235 | relative viability ([4]; first compound 0.1265 µM): 0.214 | relative viability ([4]; first compound 0.4 µM): 0.245 | relative viability ([4]; first compound 4 µM): 0.162 | relative viability ([5]; first compound 0.04 µM): 0.489 | relative viability ([5]; first compound 0.1265 µM): 0.486 | relative viability ([5]; first compound 0.4 µM): 0.449 | relative viability ([5]; first compound 4 µM): 0.432 | relative viability ([6]; first compound 0.04 µM): 0.13 | relative viability ([6]; first compound 0.1265 µM): 0.0927 | relative viability ([6]; first compound 0.4 µM): 0.0941 | relative viability ([6]; first compound 4 µM): 0.114 | relative viability ([7]; first compound 0.04 µM): 0.208 | relative viability ([7]; first compound 0.1265 µM): 0.198 | relative viability ([7]; first compound 0.4 µM): 0.19 | relative viability ([7]; first compound 4 µM): 0.199 | relative viability ([8]; first compound 0.04 µM): 0.255 | relative viability ([8]; first compound 0.1265 µM): 0.279 | relative viability ([8]; first compound 0.4 µM): 0.28 | relative viability ([8]; first compound 4 µM): 0.202 | relative viability ([9]; first compound 0.04 µM): 0.361 | relative viability ([9]; first compound 0.1265 µM): 0.514 | relative viability ([9]; first compound 0.4 µM): 0.461 | relative viability ([9]; first compound 4 µM): 0.42 | relative viability ([10]; first compound 0.04 µM): 1.09 | relative viability ([10]; first compound 0.1265 µM): 0.852 | relative viability ([10]; first compound 0.4 µM): 0.826 | relative viability ([10]; first compound 4 µM): 0.647 | relative viability ([11]; first compound 0.04 µM): 0.378 | relative viability ([11]; first compound 0.1265 µM): 0.365 | relative viability ([11]; first compound 0.4 µM): 0.35 | relative viability ([11]; first compound 4 µM): 0.346 | relative viability ([12]; first compound 0.04 µM): 0.708 | relative viability ([12]; first compound 0.1265 µM): 0.764 | relative viability ([12]; first compound 0.4 µM): 0.719 | relative viability ([12]; first compound 4 µM): 0.614 | relative viability ([13]; first compound 0.04 µM): 0.567 | relative viability ([13]; first compound 0.1265 µM): 0.592 | relative viability ([13]; first compound 0.4 µM): 0.52 | relative viability ([13]; first compound 4 µM): 0.569 | relative viability ([14]; first compound 0.04 µM): 0.389 | relative viability ([14]; first compound 0.1265 µM): 0.44 | relative viability ([14]; first compound 0.4 µM): 0.432 | relative viability ([14]; first compound 4 µM): 0.305 | relative viability ([15]; first compound 0.04 µM): 0.603 | relative viability ([15]; first compound 0.1265 µM): 0.582 | relative viability ([15]; first compound 0.4 µM): 0.595 | relative viability ([15]; first compound 4 µM): 0.466 | relative viability ([16]; first compound 0.04 µM): 0.696 | relative viability ([16]; first compound 0.1265 µM): 0.729 | relative viability ([16]; first compound 0.4 µM): 0.665 | relative viability ([16]; first compound 4 µM): 0.721 | relative viability ([17]; first compound 0.04 µM): 0.477 | relative viability ([17]; first compound 0.1265 µM): 0.494 | relative viability ([17]; first compound 0.4 µM): 0.559 | relative viability ([17]; first compound 4 µM): 0.384 | relative viability ([18]; first compound 0.04 µM): 0.279 | relative viability ([18]; first compound 0.1265 µM): 0.313 | relative viability ([18]; first compound 0.4 µM): 0.306 | relative viability ([18]; first compound 4 µM): 0.17 | relative viability ([19]; first compound 0.04 µM): 0.451 | relative viability ([19]; first compound 0.1265 µM): 0.562 | relative viability ([19]; first compound 0.4 µM): 0.579 | relative viability ([19]; first compound 4 µM): 0.482 | relative viability ([20]; first compound 0.04 µM): 0.199 | relative viability ([20]; first compound 0.1265 µM): 0.218 | relative viability ([20]; first compound 0.4 µM): 0.159 | relative viability ([20]; first compound 4 µM): 0.137 | relative viability ([21]; first compound 0.04 µM): 0.286 | relative viability ([21]; first compound 0.1265 µM): 0.238 | relative viability ([21]; first compound 0.4 µM): 0.261 | relative viability ([21]; first compound 4 µM): 0.205 | relative viability ([22]; first compound 0.04 µM): 0.542 | relative viability ([22]; first compound 0.1265 µM): 0.56 | relative viability ([22]; first compound 0.4 µM): 0.583 | relative viability ([22]; first compound 4 µM): 0.557 | relative viability ([23]; first compound 0.04 µM): 0.856 | relative viability ([23]; first compound 0.1265 µM): 0.682 | relative viability ([23]; first compound 0.4 µM): 0.593 | relative viability ([23]; first compound 4 µM): 0.503 | relative viability ([24]; first compound 0.04 µM): 0.321 | relative viability ([24]; first compound 0.1265 µM): 0.332 | relative viability ([24]; first compound 0.4 µM): 0.352 | relative viability ([24]; first compound 4 µM): 0.296
